In PMC3545992, “Trisubstituted Pyrazolopyrimidines as Novel Angiogenesis Inhibitors” (PLoS ONE, 2013):
Where two headings read alike, the source gives them in different places.

Columns and labels:
HUVECs [1] = assay: Scratch assay (migration assay); assay type: cell-based, human
Description: A: HMEC-1 cells were seeded in the same density as for the proliferation assay and treated with the respective compound at 30 µM for 72 h to test whether reduced cell numbers in the proliferation assay are due to inhibition of proliferation or to excessive cell death. No increase of detached, obviously dead or propidium iodide positive cells was detected. B and C: Confluent layers of HUVECs were scratched and the cells were allowed to migrate for 16 h in the presence or absence of 10 µM of the compounds. B: The columns indicate the area re-covered by migrating cells (n = 3, mean ± SEM, * p<0.05, One Way ANOVA, Dunnett). C: Scratches at endpoint, representative images taken out of three experiments.
HUVECs were seeded into a 24-well plate. After reaching confluency, cells were scratched using a 100 µl pipette tip. The wounded monolayers were washed twice with PBS containing Ca^2+/Mg^2+; then growth medium containing the indicated concentration of the compounds was added. After 16 h of migration, cells were washed and subsequently fixed with 4% paraformaldehyde. […] Images were taken using the TILLvisON system (TILL Photonics GmbH, Gräfelfing, Germany) and a CCD-camera connected to an Axiovert 200 microscope (Zeiss, Oberkochen, Germany). Quantitative image analysis of the cell covered area was done by Wimasis GmbH, Munich. A completely closed scratch was set as 100% migration, the area of the original open scratch was set as 0% migration.

HMEC-1 cells = assay: Crystal violet proliferation assay; assay type: cell-based, human; conditions: HMEC-1, 72 h, read-out: IC50 endothelial cell proliferation
Description: HMEC-1 cells were seeded to a density of 1,500 cells/well. After 24 h of incubation, a zero point control was stained with crystal violet. The remaining cells were left untreated as positive control or treated with 0.3-1-3-10–30 µM of the indicated compounds. After 72 h additional incubation, relative proliferation was determined by crystal violet staining and quantified as absorption at 550 nm.
HMEC-1 were seeded into 96-well-plates (1,500 cells/well). After 24 h, the cells were stimulated with the indicated compounds. At the same time point, cells in a reference plate were stained with crystal violet, serving as initial cell number. After 72 hours of stimulation, cells were fixed and stained with crystal-violet solution for 10 minutes, washed with water, and air dried. Crystal violet was eluted with dissolving buffer and absorbance was measured at 550 nm (Tecan Sunrise Absorbance reader, TECAN, Crailsheim, Germany). In a parallel series of experiments, cells seeded at the same cell density as in the proliferation assays were treated with 30 µM of the respective compound for 72 h. Afterwards, 10 µg/ml propidium iodide was added for 30 min to counterstain cells for membrane integrity. Phase contrast and fluorescence images were obtained with an inverted Nikon microscope (Ti, Nikon, Düsseldorf, Germany) equipped with a 10x objective.

HUVECs [2] = assay: Cell viability assay (CellTiter-Blue) in confluent HUVECs; assay type: cell-based, human; conditions: 30 µM, 16 h
Description: Figure 2 Cdk5 is expressed in HUVECs and HMEC-1 cells, and the compounds are not cytotoxic to endothelial cells at concentrations used in functional assays. A: Cdk5 protein expression in endothelial cells in comparison to human cortex. Cdk5 protein amount was analyzed by Western blot in samples of human cortex (HC), confluent HUVECs (HU) and HMEC-1 (HM). β-actin served as a loading control and for normalization of protein amount. Relative quantification (left panel) and one representative image (right panel) of three individual blots are shown. Note the much lower protein loading in the HC sample in the right panel. (n = 3, mean ± SEM, p>0.05, One Way ANOVA, Dunnett). B: Confluent HUVECs were treated for 16 h with 10 or 30 µM of the indicated compounds or left untreated as control. After addition of CellTiter-BlueTM Reagent, cells were incubated for 4 h and fluorescence was measured at 560 nm (n = 3, mean ± SEM, * p<0.05, One Way ANOVA, Dunnett).
HUVECs were seeded in 96-well plates. After reaching confluency, the cells were treated for 16 h with the indicated compounds or left untreated as control. After addition of CellTiter-Blue^TM Reagent (Promega Corporation, Madison, WI, USA), cells were incubated for additional 4 h and fluorescence was measured at 560 nm in a plate-reading photometer (SpectraFluor Plus; Tecan, Crailsheim, Germany).

endothelial cells [3] = tested on: endothelial cells; design: method as in PMID 20826806; conditions: 10 µM; cited from earlier work
endothelial cells [4] = tested on: endothelial cells; design: method as in PMID 21487803; conditions: cited from earlier work

Row | Structure (SMILES) | IC50 (HMEC-1 cells; Homo sapiens) | cell viability in comparison to control (HUVECs [2]) | further results
1 | CC(C)c1n[nH]c2c(NCc3ccccc3N)nc(NC3CCCCC3N)nc12 (centres unmarked) [LGR 1430, 7-(2-Aminobenzyl)amino-5-[(2-E/Z-aminocyclohexyl)amino]-3-isopropyl-1(2)H-pyrazolo-[4,3-d]pyrimidine] | 6.16 µM | – | effect on migration (in words) (HUVECs [1]; 30 µM, data not shown): no detectable effect
2 | CC(C)c1n[nH]c2c(NCc3ccccc3)nc(NC[C@@H](C)O)nc12 [LGR 1667, 7-Benzylamino-5(R)-[(2-hydroxypropyl)amino]-3-isopropyl-1(2)H-pyrazolo[4,3-d]pyrimidine] | 9.54 µM | – | –
3 | CC(C)c1n[nH]c2c(NCc3ccccc3N)nc(NC[C@H](C)O)nc12 [LGR 1695, 7-(2-Aminobenzyl)amino-5(S)-[(2-hydroxypropyl)amino]-3-isopropyl-1(2)H–pyrazolo[4,3-d]pyrimidine] | 10.2 µM | weak but significant decrease of viability | –
4 | CC(C)n1cnc2c(NCc3ccccc3N)nc(NC[C@@H](C)O)nc21 [LGR 1730] | ~20 µM | weak but significant decrease of viability | effect on endothelial cell migration (in words) (HUVECs [1]; 10 µM, 16 h, HUVECs): no significant impact; IC50 (HMEC-1 cells): 18.2 µM
5 | CC[C@H](CO)Nc1nc(NCc2ccccc2)c2ncn(C(C)C)c2n1 [roscovitine, (R)-roscovitine] | – | – | reduction of migration (endothelial cells [3]): 20%; concentration at which proliferation only started to be reduced (endothelial cells [4]): 30 µM
